Assay results taken from BindingDB's records for patent US9546164 (Genentech Inc, 2017).

Target: Sodium channel protein type 9 subunit alpha (Homo sapiens, UniProt Q15858)
Experiment: Radioligand Binding Assay (EP) (In vitro Assay)
Conditions: pH 7.4; 25 °C
Method: Binding of this radioligand was preformed in 5 mL borosilicate glass test tubes at room temperature. […] Non-specific binding was determined in the presence of 1 μM unlabelled compound. […] In 360 μL, membranes were incubated with 100 pM [3H]compound and increasing concentrations of Test Compound. Non-specific binding was defined in the presence of 1 μM unlabelled compound. Reactions were transferred and filtered through 96-well glass fiber/C filter plates presoaked with 0.5% polyethylene imine. […] Bound radioactivity was determined by liquid scintillation counting.

Chain of Sodium channel protein type 9 subunit alpha (Q15858 whole entry): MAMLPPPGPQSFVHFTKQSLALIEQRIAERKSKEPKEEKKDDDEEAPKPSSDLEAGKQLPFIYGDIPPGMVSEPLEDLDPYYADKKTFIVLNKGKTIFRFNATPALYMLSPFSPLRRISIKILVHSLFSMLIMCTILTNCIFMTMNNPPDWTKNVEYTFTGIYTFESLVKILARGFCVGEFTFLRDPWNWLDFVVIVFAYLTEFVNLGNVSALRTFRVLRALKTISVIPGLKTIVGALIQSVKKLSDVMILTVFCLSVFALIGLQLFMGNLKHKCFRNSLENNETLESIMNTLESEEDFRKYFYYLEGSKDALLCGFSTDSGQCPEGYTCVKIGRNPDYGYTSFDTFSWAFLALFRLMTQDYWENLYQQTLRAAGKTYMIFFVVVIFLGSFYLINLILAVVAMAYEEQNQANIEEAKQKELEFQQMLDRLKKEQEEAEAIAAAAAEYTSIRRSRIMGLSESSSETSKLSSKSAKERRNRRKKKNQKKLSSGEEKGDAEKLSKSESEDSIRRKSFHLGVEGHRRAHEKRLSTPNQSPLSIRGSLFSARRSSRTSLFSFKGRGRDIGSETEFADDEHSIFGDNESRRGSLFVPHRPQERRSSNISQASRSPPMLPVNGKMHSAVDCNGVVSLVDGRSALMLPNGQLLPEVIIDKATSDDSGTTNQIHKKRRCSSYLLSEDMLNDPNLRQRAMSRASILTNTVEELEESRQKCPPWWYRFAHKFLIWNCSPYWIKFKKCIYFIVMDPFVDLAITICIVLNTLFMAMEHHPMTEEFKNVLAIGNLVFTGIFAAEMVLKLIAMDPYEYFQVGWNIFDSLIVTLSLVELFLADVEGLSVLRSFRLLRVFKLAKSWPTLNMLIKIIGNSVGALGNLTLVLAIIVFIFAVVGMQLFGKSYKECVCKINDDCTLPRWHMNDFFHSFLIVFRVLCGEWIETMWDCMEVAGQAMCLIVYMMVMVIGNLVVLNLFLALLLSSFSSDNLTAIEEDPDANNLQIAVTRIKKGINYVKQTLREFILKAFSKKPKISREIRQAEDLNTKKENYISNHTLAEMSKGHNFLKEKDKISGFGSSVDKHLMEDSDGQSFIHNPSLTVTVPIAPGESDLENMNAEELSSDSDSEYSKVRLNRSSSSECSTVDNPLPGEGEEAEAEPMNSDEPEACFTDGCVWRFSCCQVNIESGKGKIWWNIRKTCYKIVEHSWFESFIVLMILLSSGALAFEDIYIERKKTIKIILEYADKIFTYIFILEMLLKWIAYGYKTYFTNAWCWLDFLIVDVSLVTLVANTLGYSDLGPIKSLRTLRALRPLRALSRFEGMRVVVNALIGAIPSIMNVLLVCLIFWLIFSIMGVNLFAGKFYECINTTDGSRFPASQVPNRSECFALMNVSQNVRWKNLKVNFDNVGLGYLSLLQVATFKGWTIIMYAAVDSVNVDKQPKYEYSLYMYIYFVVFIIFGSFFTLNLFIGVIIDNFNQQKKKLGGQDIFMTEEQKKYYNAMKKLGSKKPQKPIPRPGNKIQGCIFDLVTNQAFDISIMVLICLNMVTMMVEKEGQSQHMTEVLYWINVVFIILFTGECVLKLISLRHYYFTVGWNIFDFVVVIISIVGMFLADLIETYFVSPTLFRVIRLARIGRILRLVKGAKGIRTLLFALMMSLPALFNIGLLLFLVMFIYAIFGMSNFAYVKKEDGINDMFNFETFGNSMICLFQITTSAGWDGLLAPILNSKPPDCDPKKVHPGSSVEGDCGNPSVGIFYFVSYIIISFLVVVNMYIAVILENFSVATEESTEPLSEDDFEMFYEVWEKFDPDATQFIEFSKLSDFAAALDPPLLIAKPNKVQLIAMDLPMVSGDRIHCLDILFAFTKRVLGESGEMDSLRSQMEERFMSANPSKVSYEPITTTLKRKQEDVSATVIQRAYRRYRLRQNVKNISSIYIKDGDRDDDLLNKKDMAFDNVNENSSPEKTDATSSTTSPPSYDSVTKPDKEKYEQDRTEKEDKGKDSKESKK

SMILES | IC50 [nM]
O=C(NS(=O)(=O)N1CCC1)c1cc(C2CC2)c(OCC2CC3CCC(C2)N3C(c2ccccc2)c2ccccc2)cc1F (stereo not drawn) [US9546164, 49] | 4.3
CC(C)(C)OC(=O)N1CCC(COc2cc(F)c(C(=O)NS(C)(=O)=O)cc2Cl)CC1 [US9546164, 78] | 490
CC(c1ccc(OC(F)(F)F)cc1)N1CC(COc2cc(F)c(C(=O)NS(C)(=O)=O)cc2C2CC2)C1 (stereo not drawn) [US9546164, 157] | 35.1
CS(=O)(=O)NC(=O)c1cc(C2CC2)c(OCC2CCN(S(=O)(=O)c3cc(F)c(F)c(F)c3)CC2)cc1F [US9546164, 380] | 40.9

Further compounds by falling IC50, results first:

IC50 [nM] | SMILES
8.8 | O=C(NS(=O)(=O)C1CC1)c1cc(C2CC2)c(OCC2CCN(S(=O)(=O)c3ccc4ccccc4c3)CC2)cc1F [US9546164, 389]
7.9 | CS(=O)(=O)NC(=O)c1cc(C2CC2)c(OCC2(F)CN(C(c3ccccc3)c3ccccc3)C2)cc1F [US9546164, 67]
4.5 | CS(=O)(=O)NC(=O)c1cc(C2CC2)c(OCC2(F)CCN(Cc3cc(Cl)ccc3C(F)(F)F)CC2)cc1F [US9546164, 348]
2.1 | CC1(COc2cc(F)c(C(=O)NS(C)(=O)=O)cc2C2CC2)CCN(Cc2cc(C(F)(F)F)ccc2C(F)(F)F)CC1 [US9546164, 107]
